Active and inactive are the calls of the source. No rule for the calls is given here.
Tested on: CCRIS mutagenicity, Ames/micronucleus/aberration tests
Experiment: CCRIS mutagenicity studies
[1] = Test System: AMES SALMONELLA TYPHIMURIUM, Strain/Indicator: TA98, Metabolic Activation: NONE, Method: STANDARD PLATE
[2] = Test System: AMES SALMONELLA TYPHIMURIUM, Strain/Indicator: TA98, Metabolic Activation: RAT, LIVER, S-9, AROCLOR 1254, Method: STANDARD PLATE
[3] = Test System: AMES SALMONELLA TYPHIMURIUM, Strain/Indicator: TA100, Metabolic Activation: NONE, Method: STANDARD PLATE
[4] = Test System: MOUSE LYMPHOMA, Strain/Indicator: L5178Y (TK+/TK-), Metabolic Activation: NONE, Method: SUSPENSION/PLATE
[5] = Test System: MOUSE LYMPHOMA, Strain/Indicator: L5178Y (TK+/TK-), Metabolic Activation: RAT, LIVER, S-9, AROCLOR 1254, Method: SUSPENSION/PLATE

C/C=C/C=C/C=O
mutagenic call (Test System: AMES SALMONELLA TYPHIMURIUM, Strain/Indicator: TA98, Metabolic Activation: HAMSTER LIVER S-9, AROCLOR 1254 (30%), Method: PREINCUBATION): inactive; negative | mutagenic call (Test System: AMES SALMONELLA TYPHIMURIUM, Strain/Indicator: TA98, Metabolic Activation: HAMSTER, LIVER, S-9, AROCLOR 1254, Method: STANDARD PLATE): inactive; negative | mutagenic call (Test System: AMES SALMONELLA TYPHIMURIUM, Strain/Indicator: TA98, Metabolic Activation: NONE, Method: PREINCUBATION): inactive; negative | mutagenic call [1]: inactive; negative | mutagenic call (Test System: AMES SALMONELLA TYPHIMURIUM, Strain/Indicator: TA98, Metabolic Activation: RAT LIVER S-9, AROCLOR 1254 (30%), Method: PREINCUBATION): inactive; negative | mutagenic call [2]: inactive; negative | mutagenic call (Test System: AMES SALMONELLA TYPHIMURIUM, Strain/Indicator: TA100, Metabolic Activation: HAMSTER LIVER S-9, AROCLOR 1254 (5%), Method: PREINCUBATION): active; positive | mutagenic call (Test System: AMES SALMONELLA TYPHIMURIUM, Strain/Indicator: TA100, Metabolic Activation: HAMSTER LIVER S-9, AROCLOR 1254 (10%), Method: PREINCUBATION): active; positive | mutagenic call (Test System: AMES SALMONELLA TYPHIMURIUM, Strain/Indicator: TA100, Metabolic Activation: HAMSTER, LIVER, S-9, AROCLOR 1254, Method: STANDARD PLATE): inactive; negative | mutagenic call (Test System: AMES SALMONELLA TYPHIMURIUM, Strain/Indicator: TA100, Metabolic Activation: NONE, Method: PREINCUBATION (THREEFOLD CELL DENSITY)): active; positive | mutagenic call [3]: inactive; negative | mutagenic call (Test System: AMES SALMONELLA TYPHIMURIUM, Strain/Indicator: TA100, Metabolic Activation: RAT LIVER S-9, AROCLOR 1254 (5%), Method: PREINCUBATION): active; positive | mutagenic call (Test System: AMES SALMONELLA TYPHIMURIUM, Strain/Indicator: TA100, Metabolic Activation: RAT LIVER S-9, AROCLOR 1254 (10%), Method: PREINCUBATION): active; positive | mutagenic call (Test System: AMES SALMONELLA TYPHIMURIUM, Strain/Indicator: TA100, Metabolic Activation: RAT, LIVER, S-9, AROCLOR 1254, Method: PREINCUBATION): active; positive | mutagenic call (Test System: AMES SALMONELLA TYPHIMURIUM, Strain/Indicator: TA100, Metabolic Activation: RAT, LIVER, S-9, AROCLOR 1254, Method: PREINCUBATION (THREEFOLD CELL DENSITY)): active; positive | mutagenic call (Test System: AMES SALMONELLA TYPHIMURIUM, Strain/Indicator: TA100, Metabolic Activation: RAT, LIVER, S-9, AROCLOR 1254, Method: STANDARD PLATE): inactive; negative | mutagenic call (Test System: AMES SALMONELLA TYPHIMURIUM, Strain/Indicator: TA104, Metabolic Activation: NONE, Method: PREINCUBATION): active; positive | mutagenic call (Test System: AMES SALMONELLA TYPHIMURIUM, Strain/Indicator: TA1535, Metabolic Activation: HAMSTER LIVER S-9, AROCLOR 1254 (30%), Method: PREINCUBATION): inactive; negative | mutagenic call (Test System: AMES SALMONELLA TYPHIMURIUM, Strain/Indicator: TA1535, Metabolic Activation: HAMSTER, LIVER, S-9, AROCLOR 1254, Method: STANDARD PLATE): inactive; negative | mutagenic call (Test System: AMES SALMONELLA TYPHIMURIUM, Strain/Indicator: TA1535, Metabolic Activation: NONE, Method: PREINCUBATION): inactive; negative | mutagenic call (Test System: AMES SALMONELLA TYPHIMURIUM, Strain/Indicator: TA1535, Metabolic Activation: NONE, Method: STANDARD PLATE): inactive; negative | mutagenic call (Test System: AMES SALMONELLA TYPHIMURIUM, Strain/Indicator: TA1535, Metabolic Activation: RAT LIVER S-9, AROCLOR 1254 (30%), Method: PREINCUBATION): inactive; negative | mutagenic call (Test System: AMES SALMONELLA TYPHIMURIUM, Strain/Indicator: TA1535, Metabolic Activation: RAT, LIVER, S-9, AROCLOR 1254, Method: STANDARD PLATE): inactive; negative | mutagenic call (Test System: AMES SALMONELLA TYPHIMURIUM, Strain/Indicator: TA1537, Metabolic Activation: HAMSTER, LIVER, S-9, AROCLOR 1254, Method: STANDARD PLATE): inactive; negative | mutagenic call (Test System: AMES SALMONELLA TYPHIMURIUM, Strain/Indicator: TA1537, Metabolic Activation: NONE, Method: STANDARD PLATE): inactive; negative | mutagenic call (Test System: AMES SALMONELLA TYPHIMURIUM, Strain/Indicator: TA1537, Metabolic Activation: RAT, LIVER, S-9, AROCLOR 1254, Method: STANDARD PLATE): inactive; negative | mutagenic call (Test System: AMES SALMONELLA TYPHIMURIUM, Strain/Indicator: TA1538, Metabolic Activation: HAMSTER, LIVER, S-9, AROCLOR 1254, Method: STANDARD PLATE): inactive; negative | mutagenic call (Test System: AMES SALMONELLA TYPHIMURIUM, Strain/Indicator: TA1538, Metabolic Activation: NONE, Method: STANDARD PLATE): inactive; negative | mutagenic call (Test System: AMES SALMONELLA TYPHIMURIUM, Strain/Indicator: TA1538, Metabolic Activation: RAT, LIVER, S-9, AROCLOR 1254, Method: STANDARD PLATE): inactive; negative | mutagenic call [4]: active; positive. reevaluation of results: positive | mutagenic call [5]: inactive; negative. reevaluation of results: negative

O=[N+]([O-])c1[nH]cnc1-c1ccccc1
mutagenic call [3]: active; positive

O=[N+]([O-])c1ccc2c(O)cc3cccc4ccc1c2c43
mutagenic call (Test System: AMES SALMONELLA TYPHIMURIUM, Strain/Indicator: TA98(1,8-DNP6), Metabolic Activation: NONE, Method: STANDARD PLATE): active; positive | mutagenic call (Test System: AMES SALMONELLA TYPHIMURIUM, Strain/Indicator: TA98(1,8-DNP6), Metabolic Activation: RAT, LIVER, S-9, AROCLOR 1254, Method: STANDARD PLATE): active; positive | mutagenic call [1]: active; positive | mutagenic call [2]: active; positive | mutagenic call (Test System: AMES SALMONELLA TYPHIMURIUM, Strain/Indicator: YG1024, Metabolic Activation: NONE, Method: STANDARD PLATE): active; positive | mutagenic call (Test System: AMES SALMONELLA TYPHIMURIUM, Strain/Indicator: YG1024, Metabolic Activation: RAT, LIVER, S-9, AROCLOR 1254, Method: STANDARD PLATE): active; positive

CCCN(N)CCC
mutagenic call (Test System: AMES SALMONELLA TYPHIMURIUM, Strain/Indicator: TA100, Metabolic Activation: NONE, Method: PREINCUBATION (11 HR GROWTH PERIOD FOR BACTERIA)): active; positive | mutagenic call (Test System: AMES SALMONELLA TYPHIMURIUM, Strain/Indicator: TA100, Metabolic Activation: RAT, LIVER, S-9, PCB, Method: PREINCUBATION (11 HR GROWTH PERIOD FOR BACTERIA)): inactive; negative | mutagenic call (Test System: AMES SALMONELLA TYPHIMURIUM, Strain/Indicator: TA102, Metabolic Activation: NONE, Method: PREINCUBATION (5 OR 7 HR GROWTH PERIOD FOR BACTERIA)): active; positive | mutagenic call (Test System: AMES SALMONELLA TYPHIMURIUM, Strain/Indicator: TA102, Metabolic Activation: RAT, LIVER, S-9, PCB, Method: PREINCUBATION (5 OR 7 HR GROWTH PERIOD FOR BACTERIA)): inactive; negative

FC(F)(F)I
mutagenic call (Test System: AMES SALMONELLA TYPHIMURIUM, Strain/Indicator: TA98, Metabolic Activation: NONE, Method: DESICCATOR): active; positive | mutagenic call (Test System: AMES SALMONELLA TYPHIMURIUM, Strain/Indicator: TA98, Metabolic Activation: RAT, LIVER, S-9, AROCLOR 1254, Method: DESICCATOR): active; positive | mutagenic call (Test System: AMES SALMONELLA TYPHIMURIUM, Strain/Indicator: TA100, Metabolic Activation: NONE, Method: DESICCATOR): active; positive | mutagenic call (Test System: AMES SALMONELLA TYPHIMURIUM, Strain/Indicator: TA100, Metabolic Activation: RAT, LIVER, S-9, AROCLOR 1254, Method: DESICCATOR): active; positive | mutagenic call (Test System: AMES SALMONELLA TYPHIMURIUM, Strain/Indicator: TA1535, Metabolic Activation: NONE, Method: DESICCATOR): active; positive | mutagenic call (Test System: AMES SALMONELLA TYPHIMURIUM, Strain/Indicator: TA1535, Metabolic Activation: RAT, LIVER, S-9, AROCLOR 1254, Method: DESICCATOR): active; positive | mutagenic call (Test System: AMES SALMONELLA TYPHIMURIUM, Strain/Indicator: TA1537, Metabolic Activation: NONE, Method: DESICCATOR): active; positive | mutagenic call (Test System: AMES SALMONELLA TYPHIMURIUM, Strain/Indicator: TA1537, Metabolic Activation: RAT, LIVER, S-9, AROCLOR 1254, Method: DESICCATOR): active; positive | mutagenic call (Test System: AMES SALMONELLA TYPHIMURIUM, Strain/Indicator: TA1538, Metabolic Activation: NONE, Method: DESICCATOR): inactive; negative | mutagenic call (Test System: AMES SALMONELLA TYPHIMURIUM, Strain/Indicator: TA1538, Metabolic Activation: RAT, LIVER, S-9, AROCLOR 1254, Method: DESICCATOR): inactive; negative | mutagenic call [4]: inactive; negative | mutagenic call [5]: inactive; negative
